These results are taken from ChEMBL document CHEMBL1201862, “PubChem BioAssay data set” (2004).

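Five compound concentrations were applied to cells in 96-well plates for 48 hours; endpoints were derived by simple linear interpolation of the resulting dose-response curve. At the GI50, growth is halved.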 Active and inactive are the calls of the source. Rule as the data show it: active = GI50 up to about 1.1 µM and inactive = higher. A value given as a limit tells only on which side of the number the result lay.

Some test systems named below: 786-0; CAKI-1; CCRF-CEM; HCC 2998; HCT-15; IGROV-1; OVCAR-3; OVCAR-4; OVCAR-8; RPMI-8226; RXF 393; SK-MEL-5; SNB-19; UACC-257; KM12; SF-268.
What all share (test): NCI tumour cell line growth inhibition, 48 h

`CC(C)(C)c1cc(O)c2c(c1O)C(=O)CCC2`: the GI50 with 786-0 was 32.1 µM (inactive); in the assay with CAKI-1 it was 22.5 µM (inactive); with CCRF-CEM, 35.2 µM (inactive); in the assay on HCC 2998, 36.7 µM (inactive); in the assay on HCT-15, 40.8 µM; in the assay on IGROV-1 it was 40.7 µM (inactive). Further, the GI50 is 25.6 µM (inactive) in the assay with OVCAR-3; 30.2 µM (inactive) in the assay with OVCAR-4; 36.7 µM (inactive) in the assay with OVCAR-8; 21.1 µM (inactive) in the assay on RPMI-8226; 19.1 µM (inactive) in the assay with RXF 393; 18.4 µM (inactive) in the assay on SK-MEL-5. Further, the GI50 is 32.7 µM (inactive) with SNB-19 and 29.4 µM (inactive) in the assay with UACC-257.

On to `O=C(NN1C(=O)CS(=O)(=O)C1c1cccc(F)c1)c1ccncc1` (stereo unspecified), for which the GI50 is > 100 µM (inactive) in the assay on 786-0; > 100 µM (inactive) in the assay on CAKI-1; > 100 µM (inactive) in the assay on HCC 2998; more than 100 µM in the assay on HCT-15; > 100 µM (inactive) with KM12; > 100 µM (inactive) with OVCAR-4. Besides, the GI50 in the assay with RPMI-8226, in the assay on RXF 393, in the assay on SF-268, with SK-MEL-5, in the assay with SNB-19 and with UACC-257 was > 100 µM (inactive) throughout.

Consider `Nc1ccc(C(=O)N/C(=C\c2ccc3c(c2)OCO3)c2nc3ccc4c(c3[nH]2)C(=O)c2ccccc2C4=O)cc1`, for which the GI50 with 786-0 was 21.2 µM (inactive); in the assay on CAKI-1, 14.7 µM (inactive); with CCRF-CEM it was 2.26 µM (inactive); in the assay with HCC 2998 it was 43.3 µM (inactive); in the assay on HCT-15, 42.2 µM; in the assay on IGROV-1, 17.5 µM (inactive). For the same compound, the GI50 with KM12 was 17.8 µM (inactive); with OVCAR-3 it was 32.9 µM (inactive); in the assay with OVCAR-4, 50.5 µM (inactive); in the assay with OVCAR-8 it was 29.6 µM (inactive); with RPMI-8226, 3.68 µM (inactive); in the assay on RXF 393, 10.5 µM (inactive). Besides, the GI50 with SF-268 was 12.4 µM (inactive); in the assay on SK-MEL-5, 29 µM (inactive); in the assay with SNB-19, 30 µM (inactive); in the assay on UACC-257, 58.7 µM (inactive).

Take `NCc1c(C(N)=O)ncn1Cc1ccccc1`: the GI50 with 786-0 was > 100 µM (inactive); in the assay with CAKI-1, > 100 µM (inactive); in the assay on CCRF-CEM, > 100 µM (inactive); with HCC 2998 it was > 100 µM (inactive); with HCT-15, more than 100 µM; with IGROV-1, > 100 µM (inactive). Also, the GI50 in the assay on OVCAR-3, in the assay with OVCAR-4, in the assay on OVCAR-8, in the assay with RPMI-8226, in the assay on RXF 393 and with SK-MEL-5 was > 100 µM (inactive) throughout. In addition, the GI50 in the assay on SNB-19 and in the assay on UACC-257 was > 100 µM (inactive) throughout.

Turning to `COc1ccc(C(=O)OC2C=COC(C)C2OC(=O)c2ccc(OC)cc2)cc1` (stereo unspecified), the GI50 in the assay on 786-0 is 28.8 µM (inactive); in the assay on CAKI-1 it was 28.8 µM (inactive); in the assay on CCRF-CEM, 7 µM (inactive); in the assay with HCC 2998, > 58.1 µM (inactive); in the assay with HCT-15, 14.9 µM; in the assay with IGROV-1, 37 µM (inactive). Further, the GI50 in the assay on KM12 was 19.1 µM (inactive); in the assay on OVCAR-3, 16.6 µM (inactive); in the assay with OVCAR-4 it was 24.9 µM (inactive); in the assay on OVCAR-8, 23.6 µM (inactive); with RPMI-8226, 8.22 µM (inactive); in the assay with RXF 393 it was 14.6 µM (inactive). Besides, the GI50 in the assay on SF-268 was 15.8 µM (inactive); in the assay on SK-MEL-5, 16.7 µM (inactive); in the assay with SNB-19, 41.5 µM (inactive); in the assay with UACC-257, 21 µM (inactive).

Take `CN(C)CCNC(=O)c1cccc2nc3c(Cl)cccc3nc12`: the GI50 in the assay on 786-0 is 7.98 µM (inactive); in the assay with CAKI-1, > 20.7 µM (inactive); in the assay on HCC 2998, 8.85 µM (inactive); in the assay with HCT-15, 4.08 µM; in the assay on IGROV-1, 6.41 µM (inactive); in the assay on KM12, 5.75 µM (inactive). The GI50 in the assay on OVCAR-3 is 6.38 µM (inactive); in the assay on OVCAR-4, 6.31 µM (inactive); with OVCAR-8, 4.46 µM (inactive); in the assay with RPMI-8226, 4.23 µM (inactive); with RXF 393 it was 3.4 µM (inactive); in the assay with SK-MEL-5, 5.06 µM (inactive). The GI50 was 8.13 µM (inactive) in the assay with SNB-19 and 4.93 µM (inactive) with UACC-257.

As to `CC(=O)N(C)c1ccc2c(ccc[n+]2[O-])c1[N+](=O)[O-]`, the GI50 is > 100 µM (inactive) in the assay with 786-0; > 100 µM (inactive) with CAKI-1; > 100 µM (inactive) with CCRF-CEM; > 100 µM (inactive) in the assay on HCC 2998; more than 100 µM in the assay with HCT-15; > 100 µM (inactive) in the assay with IGROV-1. Moreover, the GI50 with KM12, with OVCAR-3, in the assay with OVCAR-4, in the assay on OVCAR-8, in the assay with RPMI-8226 and with RXF 393 was > 100 µM (inactive) each time. Besides, the GI50 with SF-268, with SK-MEL-5 and in the assay on UACC-257 was > 100 µM (inactive) throughout.

`CC1=NN2C(c3ccc(C)cc3)=CSC2=NC(C)(C)C1`: the GI50 in the assay on 786-0 was > 100 µM (inactive); in the assay on CCRF-CEM it was > 100 µM (inactive); in the assay on HCC 2998, > 100 µM (inactive); in the assay on HCT-15 it was more than 100 µM; in the assay with IGROV-1, > 100 µM (inactive); in the assay with KM12 it was > 100 µM (inactive). Further, the GI50 with OVCAR-3, in the assay with OVCAR-4, in the assay on OVCAR-8, with RPMI-8226, in the assay on RXF 393 and in the assay with SF-268 was > 100 µM (inactive) each time. Also, the GI50 in the assay on SK-MEL-5, in the assay with SNB-19 and in the assay with UACC-257 was > 100 µM (inactive) in each case.

With `CCCCCCCCCCCCC/C=C1\C[C@H](O)COC1=O`, the GI50 with 786-0 is 16 µM (inactive); with CAKI-1, 18.9 µM (inactive); in the assay on CCRF-CEM, 14.3 µM (inactive); in the assay with HCC 2998, 20.9 µM (inactive); in the assay on HCT-15, 16.5 µM; in the assay with IGROV-1, 18.1 µM (inactive). Further, the GI50 is 16.3 µM (inactive) in the assay with KM12; 17.5 µM (inactive) in the assay on OVCAR-3; 16.9 µM (inactive) in the assay with OVCAR-4; 17.5 µM (inactive) with RPMI-8226; 20 µM (inactive) with RXF 393; 20.4 µM (inactive) in the assay on SF-268. In addition, the GI50 with SK-MEL-5 was 13.7 µM (inactive); in the assay on SNB-19 it was 18.9 µM (inactive); with UACC-257, 14.8 µM (inactive).

On to `COc1ccc(/C=C/C(=O)C(C)(C)CN2CCCCC2)cc1`, for which the GI50 is 16 µM (inactive) in the assay with 786-0; 24.2 µM (inactive) in the assay on CCRF-CEM; 18.3 µM (inactive) in the assay on HCC 2998; 16.3 µM in the assay on HCT-15; 26.2 µM (inactive) in the assay on IGROV-1; 22.1 µM (inactive) in the assay with KM12. Further, the GI50 in the assay on OVCAR-3 is 18.2 µM (inactive); in the assay on OVCAR-4 it was 7.36 µM (inactive); in the assay on OVCAR-8 it was 19 µM (inactive); with RPMI-8226, 18.2 µM (inactive); in the assay on RXF 393 it was 21.3 µM (inactive); with SF-268 it was 22.1 µM (inactive). For the same compound, the GI50 in the assay with SK-MEL-5 is 19 µM (inactive); in the assay on SNB-19, 57.7 µM (inactive); in the assay with UACC-257, 17.4 µM (inactive).
